Assay [1] deals with HEK293-NK1R cells. The assay is described as follows: SP-induced membrane blebbing in HEK293-NK1R cells (phase-contrast / DIC / confocal microscopy). Type of assay: cell-based. To be noted: for effect of colchicine on SP-induced blebbing: colchicine pretreatment.
The subject of assay [2] is RhoA. Particulars: microtubule depolymerizing reagent; ref [24], [25]; cited from earlier work. The text has this:
(§1) It has been shown that Rho GTPases are regulated by microtubule dynamics. […] One of the major intracellular signaling molecules involved in the regulation of tubulin function is p21- activated kinase 1 (PAK), which interacts with a variety of other proteins ...

Assay [3] concerns T cells. Particulars: ref [26]; cited from earlier work.
Text: as §1

Assay [4] relates to myosin light chain 2 (MLC2) (Ser19). Type of assay: cell-based, human. The protocol: Cells were lysed in lithium dodecyl sulfate (LDS) sample buffer (Invitrogen, Carlsbad, CA), and lysed using a sonic dismembrator model 100 (Fisher Scientific, Hampton, NH). Cell extracts were subjected to LDS polyacrylamide gel electrophoresis and transferred to polyvinylidene difluoride membranes. After blocking with 5% nonfat dry milk in 0.1% Tween 20/TBS, membranes were incubated with the primary antibody. […] The following non phospho-specific antibodies were used: Beta-Actin and PAK1/2/3 (Cell Signaling Technology, Beverly, MA). Secondary antibodies conjugated to horseradish peroxidase were either anti-rabbit (Biorad, Hercules, CA), or anti-mouse (Cell Signaling Technology, Beverly, MA). Bands were visualized by enhanced chemiluminescence using SuperSignal® West Pico Chemiluminescent Substrate (Thermo Scientific, Rockford, IL) on a VersaDoc Imager (BioRad, Hercules, CA).

Entries after “also recorded” stand apart in the source; their conditions may differ.

In the case of `Oc1ccc2ccccc2c1SSc1c(O)ccc2ccccc12` [IPA3, 1, 1′-Dithiodi-2-naphthtol], the “effect of IPA3 on SP-induced blebbing” value in assay [1] (IPA3 pretreatment, phase-contrast) is “not in HEK293 cells; also recorded: no effect on HEK293- NK1R cell's ability to bleb”. Regarding `COC(=O)Nc1nc2ccc(C(=O)c3cccs3)cc2[nH]1` [Nocodazole], in assay [2], the “RhoA activation by nocodazole” value was “induces RhoA activation”. Further, in assay [3], the “effect of nocodazole on T cell migratory phenotype” value was “converts T cells from the classical lamellipodial/uropod migratory phenotype to a blebbing migratory phenotype”. As for `COc1cc2c(c(OC)c1OC)-c1ccc(OC)c(=O)cc1[C@@H](NC(C)=O)CC2` [colchicine], the “cell morphology after colchicine” value in assay [1] (colchicine) is “causing the cells to appear less adherent and to round up”. The “effect of colchicine on SP-induced blebbing” value in assay [1] is given as “not able to block the SP-induced blebbing”; in assay [1] (listed as Colchicine), “unable to block bleb formation”. As for C3 transferase, the “effect of C3 transferase on MLC phosphorylation” value in assay [4] is given as “decrease in MLC phosphorylation”.

These data come from paper PMC3179504 (PLoS ONE, 2011).
